Assay results published in patent publication US20190015385A1, “VITAMIN E PHOSPHATE OR ACETATE FOR USE IN THE TREATMENT AND PREVENTION OF BIOFILM INFECTIONS” (priority 2016, published 2019).

Assays:
P. acnes = assay: MIC and MBC, broth microdilution (Example 3); assay type: cell-based
Method: MIC, defined as the lowest concentration capable of inhibiting bacterial growth, was determined using the broth microdilution method according to EUCAST guidelines (http://www.eucast.org/clinical_breakpoints/). In short, a suspension in Brain Heart Infusion Broth ([…], France) was prepared for each bacterial strain, with an optical density of 0.5 McFarland (1.5×10^8 CFU/ml). The P. acnes broth was supplemented with 5% defibrinated sheep blood ([…] Abruzzi, Italy). After a concentration of 10^5 UFC/ml was obtained using appropriate dilutions, each suspension was inoculated in a 96-well microtitre plate containing a two-fold serial dilution of vitamin E acetate (VitE-Ac) and vitamin E phosphate. The controls were performed by inoculating bacterial suspensions in BHI alone. […] After incubation at adequate conditions, MBC was read as the lowest concentration capable of killing 99.9% of the initial inoculum.

S. aureus [1] = assay: MIC and MBC, broth microdilution (Example 3); assay type: cell-based, Staphylococcus aureus; settings: S. aureus strains
Source text: (§1) This study used clinically relevant strains isolated from patients with prosthetic joint infections at the Microbiology Laboratory of the IRCCS Galeazzi Orthopaedic institute (Italy). In particular, the following were selected: strains of methicillin-resistant Staphylococcus epidermidis, of methicillin-resistant Staphylococcus aureus and of Pseudomonas aeruginosa. These strains were identified beforehand by means of biochemical assays (VITEK® 2 Compact, bioMérieux, Marcy l'Etoile, France) and stored at −80° C. prior to the analysis. Before beginning the study, all strains were screened to assess their ability to produce biofilms, according to the spectrophotometric assay described by Christensen et al. (J Clin Microbiol 1985; 22: 996-1006).
(§2) The bacteriostatic and bactericidal activity of vitamin E acetate and vitamin E phosphate against the above-mentioned bacterial strains was assessed by measuring the minimum inhibitory concentration (MIC) and the minimum bactericidal concentration (MBC). MIC, defined as the lowest concentration capable of inhibiting bacterial growth, was determined using the broth microdilution method according to EUCAST guidelines (http://www.eucast.org/clinical_breakpoints/).
(§3) In short, a suspension in Brain Heart Infusion Broth (BHI; Biomérieux, Marci l'Etoile, France) was prepared for each bacterial strain, with an optical density of 0.5 McFarland (1.5×10^8 CFU/ml). The P. acnes broth was supplemented with 5% defibrinated sheep blood (Liofilchem, Roseto degli Abruzzi, Italy). After a concentration of 10^5 UFC/ml was obtained using appropriate dilutions, each suspension was inoculated in a 96-well microtitre plate containing a two-fold serial dilution of vitamin E acetate (VitE-Ac) and vitamin E phosphate. The controls were performed by inoculating bacterial suspensions in BHI alone. […] After incubation at adequate conditions, MBC was read as the lowest concentration capable of killing 99.9% of the initial inoculum.

S. epidermidis [2] = assay: MIC and MBC, broth microdilution (Example 3); assay type: cell-based, Staphylococcus epidermidis; settings: S. epidermidis strains
Source text: as §1, §2, §3

S. epidermidis [3] = assay: Anti-adhesion activity on coated titanium disks, CFU count (Example 3); assay type: cell-based, Staphylococcus epidermidis; settings: 5 mg/cm^2 coating, 30, 60 and 120 minutes
Method: (§4) Sterile disks of sandblasted titanium with a diameter of 25 mm and a thickness of 5 mm (Adler Ortho, Cormano, Italy) were used as the substrate for the formation of biofilms. The disks were coated with sub-inhibitory concentrations of vitamin E acetate (5 mg/cm^2) or vitamin E phosphate (5 mg/cm^2). The concentrations were selected based on the MIC results. Uncoated disks were used as negative controls. The anti-adhesion activity of vitamin E was assessed against a representative strain for each species. An overnight bacteria culture was resuspended in Brain Heart Infusion Broth (BHI; Biomérieux) at a density of 1.0×10^7 CFU/ml for each strain, and 400 microliters of microbial suspension were inoculated on coated and uncoated disks. The test was performed in triplicate for each strain. After 30, 60 and 120 minutes of incubation, the disks were washed twice with a sterile saline solution to eliminate non-adherent bacteria. The disks were then immersed in 5 ml of a 0.1 w/v % dithiothreitol solution (DTT, Sigma-Aldrich, Milan, Italy) and mechanically stirred for 15 minutes at room temperature. Suitable dilutions of the fluids obtained were inoculated on Tryptic Soy Agar (TSA, Merck) and incubated at 37° C. in an aerobic atmosphere for 24 hours for the CFU count.

Staphylococcus aureus = assay: Anti-biofilm activity, crystal violet spectrophotometric assay (Example 1); assay type: cell-based; settings: S. aureus
Method: (§5) The bacterial biofilm was formed in a sterile 96-well polystyrene plate. In short, a microbial suspension was prepared at an optical density of 0.5 McFarland for each strain. 20 μl of microbial suspension were added to each well containing 180 μl of VitE at various concentrations. Positive controls were performed by inoculating the bacteria in BHI+HA. Following incubation for 24 h at 37° C., the broth was removed, together with non-adherent microorganisms, and 200 μl of broth were added once again. The plates were incubated at 37° C. for another 48 h, until a mature biofilm was obtained.
(§6) The amount of biofilm was determined by means of a spectrophotometric assay, adopting the method developed by Christensen et al. (1985). At the end of the incubation period, the culture medium was removed and the wells covered by the biofilm were washed twice with a sterile saline solution and then dried. The biofilm was stained with 200 μl of a 5% crystal violet solution for 10 minutes. After staining, the wells were washed with a sterile saline solution to remove excess stain and left to dry completely. Lastly, 200 μl of 96% ethanol were added to each well to re-solubilize the stain included in the biofilm. Absorbance of the crystal violet was measured at 595 nm using a microplate reader. The assay was conducted in triplicate for each bacterial strain and repeated twice.

Escherichia coli = assay: as above; assay type: cell-based; settings: E. coli
Method: as §5, §6

Candida albicans = assay: as above; assay type: cell-based; settings: C. albicans
Method: as §5, §6

Pseudomonas aeruginosa = assay: as above; assay type: cell-based; settings: P. aeruginosa
Method: as §5, §6

[4] = test system: Staphylococcus epidermidis; assay: as above; assay type: cell-based; settings: S. epidermidis
Method: as §5, §6

P. aeruginosa [5] = assay: MIC and MBC, broth microdilution (Example 3); assay type: cell-based, Pseudomonas aeruginosa; settings: P. aeruginosa strains
Source text: as §1, §2, §3

P. aeruginosa [6] = assay: Anti-adhesion activity on coated titanium disks, CFU count (Example 3); assay type: cell-based, Pseudomonas aeruginosa; settings: 5 mg/cm^2 coating, 30, 60 and 120 minutes
Method: as §4

S. aureus [7] = assay: as above; assay type: cell-based, Staphylococcus aureus; settings: 5 mg/cm^2 coating, 30, 60 and 120 minutes
Method: as §4

[8] = kills 99.9% of the initial inoculum

SMILES: CC(=O)Oc1c(C)c(C)c2c(c1C)CCC(C)(CCC[C@H](C)CCC[C@H](C)CCCC(C)C)O2 (stereo partly drawn) [Vitamin E acetate, α-tocopherol acetate]
- MIC range (P. acnes; 48 hours, broth with 5% defibrinated sheep blood): >200 mg/mL
- MBC range (P. acnes; [8]): >200 mg/mL
- MIC range (S. aureus [1]; 24 hours): >200 mg/mL
- MBC range (S. aureus [1]; [8]): >200 mg/mL
- MIC range (S. epidermidis [2]; 24 hours): >200 mg/mL
- MBC range (S. epidermidis [2]; [8]): >200 mg/mL
- decrease in adhesion (in words) (S. epidermidis [3]): significant decrease
- reduction of microbial biofilm with respect to the control (Staphylococcus aureus; 2.5% VitE in HA carrier): 63%
- reduction of microbial biofilm with respect to the control (Staphylococcus aureus; 5% VitE in HA carrier): 79%
- reduction of microbial biofilm with respect to the control (Escherichia coli; 2.5% VitE in HA carrier): 18%
- reduction of microbial biofilm with respect to the control (Escherichia coli; 5% VitE in HA carrier): 38%
- reduction of microbial biofilm with respect to the control (Candida albicans; 2.5% VitE in HA carrier): 24%
- reduction of microbial biofilm with respect to the control (Candida albicans; 5% VitE in HA carrier): 37%
- reduction of microbial biofilm with respect to the control (Pseudomonas aeruginosa; 2.5% VitE in HA carrier): 24%
- reduction of microbial biofilm with respect to the control (Pseudomonas aeruginosa; 5% VitE in HA carrier): 39%
- reduction of microbial biofilm with respect to the control ([4]; 2.5% VitE in HA carrier): 30%
- reduction of microbial biofilm with respect to the control ([4]; 5% VitE in HA carrier): 46%
- MIC range (P. aeruginosa [5]; 24 hours): >200 mg/mL
- MBC range (P. aeruginosa [5]; [8]): >200 mg/mL
- decrease in adhesion (in words) (P. aeruginosa [6]): No effect
- decrease in adhesion (in words) (S. aureus [7]): significant decrease
